In brackets after ≈: the same amount, converted by molar mass.
Experiments:
physchem = conditions: pH 7.4, aqueous buffer, kinetic from dmso stock
Experimental: Turbimetric Assay: Determination of Solubility
The solubility of the compounds was measured using a turbidimetric method. A series of doubling dilutions of compounds were prepared in neat dimethyl sulfoxide (DMSO). 5 μl samples were diluted twenty-fold into 95 μl volumes of 100 mM citrate buffer (pH 4), phosphate buffered saline (PBS, pH 7.4) or carbonate-bicarbonate buffer (pH 9) in microtitre assay plates and allowed to reach equilibrium at room temperature for 24 hours. The absorbance within each well of the plate was read spectrophotometrically at a wavelength of 620 nm. A precipitate forms when the maximum aqueous solubility level is reached. The value quoted is the highest concentration where the compound was in solution i.e. where no measurable precipitate was present. […] ND=not determined

[1] = test system: Staphylococcus aureus (Isolate ID ATCC 29213); test: Antibacterial activity, MIC, S. aureus; format: cell-based; conditions: broth microdilution or agar dilution; for MIC: Staphylococcus aureus, ATCC29213, Gram positive strain; for Antibacterial Activity (MIC) S. aureus (ATCC 29213): Gram positive strain
Experimental: (§1) Bacterial Assay: Determination of Antibacterial Activity
(§2) Compounds of the invention were tested for antimicrobial activity by susceptibility testing in liquid or on solid media. MICs for compounds against each strain were determined by the broth microdilution or agar dilution method according to the guidelines of the Clinical Laboratories and Standards Institute, formerly the National Committee for Clinical Laboratory Standards (Clinical Laboratories and Standards Institute. Methods for Dilution Antimicrobial Susceptibility Tests for Bacteria That Grow Aerobically; Approved Standard—Seventh Edition. Document M7-A7. CLSI, Wayne, Pa., 2006; Clinical Laboratories and Standards Institute. The gram positive bacterial strains tested include S. aureus (Staphylococcus aureus (Isolate ID ATCC 29213)), E. faecalis (Enterococcus faecalis (Isolate ID ATCC 29212)) and S. pyogenes (Streptococcus pyogenes (Isolate ID ATCC 51339)). The gram negative bacterial strains tested include H. influenzae (Haemophilus influenzae (Isolate ID ATCC 49247))

[2] = test system: Haemophilus influenzae (Isolate ID ATCC 49247); test: Antibacterial activity, MIC, H. influenzae; format: cell-based; conditions: Gram negative strain, broth microdilution or agar dilution; for MIC: Haemophilus influenzae, ATCC49247
Experimental: as §1, §2

[3] = test system: Streptococcus pyogenes (Isolate ID ATCC 51339); test: Antibacterial activity, MIC, S. pyogenes; format: cell-based; conditions: broth microdilution or agar dilution; for MIC: Streptococcus pyogenes, ATCC51339, Gram positive strain; for Antibacterial Activity (MIC) S. pyogenes (ATCC 51339): Gram positive strain
Experimental: as §1, §2

[4] = Solubility Range (maximum solubility)

| Compound | solubility at 24 h (physchem; Max Solubility) [µg/mL] | solubility at 24 h (physchem; Solubility (pH 7.4)) [µg/mL] | solubility at 24 h (physchem; Solubility Range) [µg/mL] | solubility at 24 h (physchem; [4]) [µg/mL] | MIC [1] [µg/mL] | MIC [2] [µg/mL] | MIC [3] [µg/mL] | Antibacterial Activity (MIC) S. aureus (ATCC 29213) [1] | Antibacterial Activity (MIC) H. influenzae (ATCC 49247) [2] | Antibacterial Activity (MIC) S. pyogenes (ATCC 51339) [3] |
| --- | --- | --- | --- | --- | --- | --- | --- | --- | --- | --- |
| CCNC(=O)Nc1nc2cc(-c3cnc(N4CCC(C)(C(=O)O)CC4)nc3)cc(-c3ncc(C)cc3F)c2s1 [Compound 93] | ≥ 800 | ≥ 800 | > 800 | > 800 | ≤ 0.25 | 1 to 16 (≈ 1.82 to 29.1 µM) | ≤ 0.25 | – | – | – |
| CCNC(=O)Nc1nc2cc(-c3cnc(N4CCC(C)(C(=O)O)CC4)nc3)cc(/C(C)=N/OCC(F)(F)F)c2s1 [Compound 94] | ≥ 800 | ≥ 800 | > 800 | > 800 | 1 to 16 (≈ 1.73 to 27.6 µM) | > 16 | 1 to 16 (≈ 1.73 to 27.6 µM) | – | – | – |
| CCNC(=O)Nc1nc2cc(-c3cnc(N4CCC(C)(C(=O)O)CC4)nc3)cc(/C(C)=N/O)c2s1 [Compound 95] | ≥ 800 | ≥ 800 | > 800 | > 800 | 1 to 16 (≈ 2.01 to 32.2 µM) | > 16 | 0.25 to 1 (≈ 0.502 to 2.01 µM) | – | – | – |
| CCNC(=O)Nc1nc2cc(-c3cnc(N4CCC(C)(C(=O)O)CC4)nc3)cc(/C(C)=N/OCC)c2s1 [Compound 96] | ≥ 800 | ≥ 800 | > 800 | > 800 | ≤ 0.25 | 1 to 16 (≈ 1.9 to 30.4 µM) | 0.25 to 1 (≈ 0.476 to 1.9 µM) | – | – | – |
| CCNC(=O)Nc1nc2cc(-c3cnc(N4CCC(C)(C(=O)O)CC4)nc3)cc(C(=O)NCC)c2s1 [Compound 97, 1-[5-[7-(Ethylcarbamoyl)-2-(ethylcarbamoylamino)-1,3-benzothiazol-5-yl]pyrimidin-2-yl]-4-methyl-piperidine-4-carboxylic acid] | ≥ 800 | ≥ 800 | > 800 | > 800 | > 16 | > 16 | 1 to 16 (≈ 1.95 to 31.3 µM) | – | – | – |
| CCNC(=O)Nc1nc2cc(-c3cnc(N4CCC(CC)(C(=O)O)CC4)nc3)cc(/C(C)=N/OC)c2s1 [Compound 116, 4-ethyl-1-[5-[2-(ethylcarbamoylamino)-7-[(E)-N-methoxy-C-methyl-carbonimidoyl]-1,3-benzothiazol-5-yl]pyrimidin-2-yl]piperidine-4-carboxylic acid] | ≥ 800 | ≥ 800 | > 800 | > 800 | ≤ 0.25 | 1 to 16 (≈ 1.9 to 30.4 µM) | ≤ 0.25 | – | – | – |
| CCNC(=O)Nc1nc2cc(-c3cnc(N4CCC(CC)(C(=O)O)CC4)nc3)cc(/C=N/OC)c2s1 [Compound 189, 4-Ethyl-1-[5-[2-(ethylcarbamoylamino)-7-[(E)-methoximinomethl]-1,3-benzothiazol-5-yl]pyrimidin-2-yl]piperidine-4-carboxylic acid] | – | – | – | – | – | – | – | A (“A” activity ≦0.25 μg/mL) | C (“C” activity >1.0 μg/mL-16 μg/mL) | A (“A” activity ≦0.25 μg/mL) |
| CCNC(=O)Nc1cn2c(-n3cccn3)cc(-c3cnc(N4CCC(CC)(C(=O)O)CC4)nc3)cc2n1 [Compound 230, 4-ethyl-1-[5-[2-(ethylcarbamoylamino)-5-pyrazol-1-yl-imidazo[1,2-a]pyridin-7-yl]pyrimidin-2-yl]piperidine-4-carboxylic acid] | – | – | – | – | 1 to 16 (≈ 1.99 to 31.8 µM) | > 16 | 1 to 16 (≈ 1.99 to 31.8 µM) | – | – | – |
| CCNC(=O)Nc1cn2c(-n3cccn3)cc(-c3cnc(N4CCC(C)(C(=O)O)CC4)nc3)cc2n1 [Compound 231, 1-[5-[2-(ethylcarbamoylamino)-5-pyrazol-1-yl-imidazo[1,2-a]pyridin-7-yl]pyrimidin-2-yl]-4-methyl-piperidine-4-carboxylic acid] | – | – | – | – | > 16 | – | 1 to 16 (≈ 2.04 to 32.7 µM) | – | – | – |
| CCNC(=O)Nc1nc2cc(-c3nc(N4CCC(C)(C(=O)O)CC4)ns3)cc(-c3ccccn3)c2s1 [Compound 233, 1-(5-{2-[(ethylcarbamoyl)amino]-7-(pyridin-2-yl)-1,3-benzothiazol-5-yl}-1,2,4-thiadiazol-3-yl)-4-methylpiperidine-4-carboxylic acid] | – | – | – | – | – | – | – | B (“B” activity >0.25 μg/mL-1.0 μg/mL) | D (“D” activity >16 μg/mL) | B (“B” activity >0.25 μg/mL-1.0 μg/mL) |

— patent publication US9181234B2, “Antibacterial compounds” (priority 2010, dated 2015)
